Assay results taken from patent publication US9993494B2, “Compositions and methods for treating fibrotic disease” (eFFECTOR Therapeutics, Inc., priority 2014, dated 2018).

Test system: normal human lung fibroblasts
Assay: Ribosomal profiling: translational efficiency in TGFβ-treated fibroblasts
Format: cell-based
Settings: TGFβ-treated fibroblasts
Experimental: Ribosomal profiling allows for measurement of changes in transcription and translation on a genome-wide basis accompanying TGFβ-dependent transformation of fibroblasts to myofibroblasts. Ribosomal profiles of the TGFβ-treated fibroblasts from Example 1 (about 6×10^6 cells/10 cm plate) were prepared and analyzed for changes in translational efficiencies with respect to potential disease-associated cellular changes accompanying this TGFβ-induced transformation.
Briefly, cells were washed with cold PBS supplemented with cycloheximide and lysed with 1× mammalian cell lysis buffer for 10 minutes on ice. Lysates were clarified by centrifugation for 10 minutes at 14,000 rpm and supernatants were collected. Cell lysates were processed to generate ribosomal protected fragments and total mRNA according to the instructions included with the ARTseq Ribosome Profiling Kit (Illumina, San Diego, Calif.). Sequencing of total RNA (RNA) and of ribosome-protected fragments of RNA (RPF) was carried out using RNA-Seq methodology according to the manufacturer's instructions (Illumina). To analyze the ribosomal profiles, RNA-Seq reads were processed with tools from the FASTX-Toolkit (fastq_quality_trimmer, fastx_clipper and fastx_trimmer). Unprocessed and processed reads were evaluated for a variety of quality measures using FastQC, and processed reads were mapped to the human genome using TopHat (see, e.g., Trapnell et al., Bioinformatics 25:1105, 2009). Gene-by-gene assessment of the number of fragments strictly and uniquely mapping to the coding region of each gene was conducted using HTSeq-count, a component of the HTSeq package. […] Genes with low counts in either RPF or RNA were excluded from differential analyses. Pathway and network analyses of differential data were conducted using Ingenuity Pathway Analysis (IPA).

CC(C=CC(=O)NO)=CC(C)C(=O)c1ccc(N(C)C)cc1 (stereo not drawn) [TSA, 7-[4-(dimethylamino)phenyl]-N-hydroxy-4,6-dimethyl-7-oxohepta-2,4-dienamide]
renormalizing the translational profile of RPL9 (ENSG00000163682): − (− = <0.9)
renormalizing the translational profile of RHOBTB3 (ENSG00000164292): − (− = <0.9)
renormalizing the translational profile of RPL36AL (ENSG00000165502): − (− = <0.9)
renormalizing the translational profile of RPL27A (ENSG00000166441): − (− = <0.9)
renormalizing the translational profile of RP11-382A20.3.1 (ENSG00000166503): − (− = <0.9)
renormalizing the translational profile of ANKDD1A (ENSG00000166839): − (− = <0.9)
renormalizing the translational profile of RPL13 (ENSG00000167526): − (− = <0.9)
renormalizing the translational profile of EEF2 (ENSG00000167658): + (+ = 0.9 to 1.5)
renormalizing the translational profile of CA5B (ENSG00000169239): + (+ = 0.9 to 1.5)
renormalizing the translational profile of KIAA1024 (ENSG00000169330): − (− = <0.9)
renormalizing the translational profile of MURC (ENSG00000170681): + (+ = 0.9 to 1.5)
renormalizing the translational profile of HTRA3 (ENSG00000170801): − (− = <0.9)
renormalizing the translational profile of PDE7B (ENSG00000171408): ++ (++ = 1.5 to 2.0)
renormalizing the translational profile of LPAR3 (ENSG00000171517): ++ (++ = 1.5 to 2.0)
renormalizing the translational profile of CTPS (ENSG00000171793): − (− = <0.9)
renormalizing the translational profile of QARS (ENSG00000172053): − (− = <0.9)
renormalizing the translational profile of RPL38 (ENSG00000172809): − (− = <0.9)
renormalizing the translational profile of MRPL45 (ENSG00000174100): − (− = <0.9)
renormalizing the translational profile of RPL4 (ENSG00000174444): − (− = <0.9)
renormalizing the translational profile of RPL15 (ENSG00000174748): − (− = <0.9)
renormalizing the translational profile of DES (ENSG00000175084): − (− = <0.9)
renormalizing the translational profile of EIF3F (ENSG00000175390): − (− = <0.9)
renormalizing the translational profile of CLCF1 (ENSG00000175505): + (+ = 0.9 to 1.5)
renormalizing the translational profile of AMIGO3 (ENSG00000176020): + (+ = 0.9 to 1.5)
renormalizing the translational profile of C14orf49 (ENSG00000176438): − (− = <0.9)
renormalizing the translational profile of RPLP2 (ENSG00000177600): − (− = <0.9)
renormalizing the translational profile of IMPDH2 (ENSG00000178035): − (− = <0.9)
renormalizing the translational profile of DNAJC22 (ENSG00000178401): − (− = <0.9)
renormalizing the translational profile of RPL35A (ENSG00000182899): − (− = <0.9)
renormalizing the translational profile of LENG9 (ENSG00000182909): − (− = <0.9)
renormalizing the translational profile of C22orf32 (ENSG00000183172): − (− = <0.9)
renormalizing the translational profile of NPW (ENSG00000183971): − (− = <0.9)
renormalizing the translational profile of PDE4B (ENSG00000184588): + (+ = 0.9 to 1.5)
renormalizing the translational profile of ROBO2 (ENSG00000185008): − (− = <0.9)
renormalizing the translational profile of PTCH1 (ENSG00000185920): − (− = <0.9)
renormalizing the translational profile of POLR1D (ENSG00000186184): − (− = <0.9)
renormalizing the translational profile of DYNC2H1 (ENSG00000187240): − (− = <0.9)
renormalizing the translational profile of RPL14 (ENSG00000188846): + (+ = 0.9 to 1.5)
renormalizing the translational profile of LRRK2 (ENSG00000188906): − (− = <0.9)
renormalizing the translational profile of NACA (ENSG00000196531): − (− = <0.9)
renormalizing the translational profile of LAMB3 (ENSG00000196878): − (− = <0.9)
renormalizing the translational profile of PCBP2 (ENSG00000197111): + (+ = 0.9 to 1.5)
renormalizing the translational profile of MAP3K5 (ENSG00000197442): + (+ = 0.9 to 1.5)
renormalizing the translational profile of RPL37A (ENSG00000197756): − (− = <0.9)
renormalizing the translational profile of RPL12 (ENSG00000197958): − (− = <0.9)
renormalizing the translational profile of LPAR1 (ENSG00000198121): − (− = <0.9)
renormalizing the translational profile of RPL23A (ENSG00000198242): − (− = <0.9)
renormalizing the translational profile of PLN (ENSG00000198523): − (− = <0.9)
renormalizing the translational profile of RPL10A (ENSG00000198755): − (− = <0.9)
renormalizing the translational profile of CES1 (ENSG00000198848): − (− = <0.9)
renormalizing the translational profile of RPL39 (ENSG00000198918): − (− = <0.9)
renormalizing the translational profile of CARD16 (ENSG00000204397): − (− = <0.9)
renormalizing the translational profile of MICA (ENSG00000204520): − (− = <0.9)
renormalizing the translational profile of GNB2L1 (ENSG00000204628): − (− = <0.9)
renormalizing the translational profile of RPL17 (ENSG00000215472): − (− = <0.9)
renormalizing the translational profile of RPL41 (ENSG00000229117): − (− = <0.9)
renormalizing the translational profile of ARPC1A (ENSG00000241685): + (+ = 0.9 to 1.5)
renormalizing the translational profile of CHCHD10 (ENSG00000250479): − (− = <0.9)
renormalizing the translational profile of EEF1G (ENSG00000254772): − (− = <0.9)
number of genes whose translational efficiency was uniquely modulated by the compound (duplicate ribosomal profiles): 13 genes
effect in renormalizing the translational profile of the gene (gene RPS2 (ENSG00000140988)): − (− = <0.9)
effect in renormalizing the translational profile of the gene (gene RPS3 (ENSG00000149273)): − (− = <0.9)
effect in renormalizing the translational profile of the gene (gene RPS3A (ENSG00000145425)): − (− = <0.9)
effect in renormalizing the translational profile of the gene (gene RPS4X (ENSG00000198034)): − (− = <0.9)
effect in renormalizing the translational profile of the gene (gene RPS4Y1 (ENSG00000129824)): − (− = <0.9)
effect in renormalizing the translational profile of the gene (gene RPS5 (ENSG00000083845)): − (− = <0.9)
